The nature of series [1]: Toxicity assessment, cell survival of fibroblasts. In kind it is cell-based. The settings on record: human, fibroblasts (FF), increasing concentrations up to 1,000 ng/ml, 48 hours of exposure. How it is done: (§1) The chimeric peptides of the invention and the peptides from which they are derived were found safe, non-toxic, to normal cells such endothelial cells (BAEC; FIG. 9a) and fibroblasts (FF; FIG. 9B). Cells incubated with increasing concentrations (up to 1,000 ng/ml) of the chimeric peptide (black square), the haptide alone (white/empty circle) or the M-tide alone (white/empty square), maintained 100% survival. Cell survival was measured following 48 hours of exposure to the peptides.

A short description of series [2]: Toxicity assessment, cell survival of endothelial cells. In kind it is cell-based. The settings on record: bovine, endothelial cells (BAEC), increasing concentrations up to 1,000 ng/ml, 48 hours of exposure. How it is done: as §1

No end group written: not given here.

As for “KTRWYSMKKTTMK [haptide, KTRWYSMKKTTMK, reference compound]”, the viability at 48 h in series [1] and in series [2] was 100% each time.
As to “KTRWYSMKKTTMKVFQKRLDGSVDFKK [chimeric peptide]”, the viability at 48 h in series [1] and in series [2] was 100% in each case.
For “VFQKRLDGSVDFKK [M-tide, VFQKR LDGSV DFKK]”, the viability at 48 h in series [1] and in series [2] was 100% each time.

Broadly, the viability is a per cent measure of how many cells are alive, often set against a control. A low value points to a greater loss of cells.

Values taken from US8354111B2, “Stable cell binding chimeric peptides” (Hadasit Medical Research Services and Development Ltd., priority 2008, dated 2013).
